The nature of series [1]: Plasma stability assay, human plasma. The series is classed as in vitro ADME. The conditions noted are these: 37° C., % intact compound remaining after 4 h or 24 h. The protocol:
In order to determine the stability of selected compounds of the invention in human and mouse plasma, a plasma stability assay was carried out. Such plasma stability assay measures degradation of compounds of the present invention in blood plasma. This is an important characteristic of a compound as compounds, with the exception of pro-drugs, which rapidly degrade in plasma, generally show poor in vivo efficacy. […] The stability is sufficient for the diagnostic, therapeutic and theragnostic use of these compounds according to the present invention.
The plasma stability samples were prepared by spiking 50 μL plasma aliquots (all K2EDTA) with 1 μL of a 0.5 mM compound stock solution in DMS0. After vortexing the samples were incubated in a Thermomixer at 37° C. for 0, 4 and 24 hours. After incubation the samples were stored on ice until further treatment. All samples were prepared in duplicates.
A suitable internal standard was added to each sample (1 μL of a 0.5 mM stock solution in DMSO). Protein precipitation was performed by addition of 250 μL of acetonitrile containing 1% trifluoroacetic acid. After incubation at room temperature for 30 min the precipitate was separated by centrifugation and 150 μL of the supernatant was diluted with 150 μL of 1% aqueous formic acid.
Additionally, recovery was determined by spiking a pure plasma sample that only contained the internal standard after treatment with a certain amount of the compound.
Carry-over was evaluated by analysis of a blank sample (20% acetonitrile) after the highest calibration sample.

Series [2] is described as follows: Plasma stability assay, mouse plasma. The conditions noted are these: 37° C., % intact compound remaining after 4 h or 24 h. It is filed as in vitro ADME. The gist of the method: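 K2EDTA mouse or human plasma spiked with compound from 0.5 mM DMSO stock, incubated at 37 °C for 0, 4 and 24 h in duplicate. Proteins precipitated with acetonitrile/1% TFA, internal standard added; recovery and carry-over evaluated.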

Another series addresses T1, Human GIPR (Homo sapiens, UniProt P48546).
T1 construct: host or cells: CHO-K1 or CHO-VGT
T1 sequence (P48546 22-466): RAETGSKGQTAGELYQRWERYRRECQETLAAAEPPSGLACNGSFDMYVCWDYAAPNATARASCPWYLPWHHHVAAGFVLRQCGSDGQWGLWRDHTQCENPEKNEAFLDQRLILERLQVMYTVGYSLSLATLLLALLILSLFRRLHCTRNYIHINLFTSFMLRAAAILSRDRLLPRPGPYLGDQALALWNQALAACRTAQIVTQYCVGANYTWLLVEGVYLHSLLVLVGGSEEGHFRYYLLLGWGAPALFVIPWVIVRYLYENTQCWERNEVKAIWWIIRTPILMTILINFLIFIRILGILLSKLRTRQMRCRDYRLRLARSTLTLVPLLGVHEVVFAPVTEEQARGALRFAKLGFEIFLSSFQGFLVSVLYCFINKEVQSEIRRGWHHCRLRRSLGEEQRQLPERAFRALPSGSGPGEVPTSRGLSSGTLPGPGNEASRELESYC
The series is described as follows: Radioligand binding assay, human GIPR. The conditions noted are these: 111In-labeled compound, 6 h, 37° C., read-out: pKD Category (converted). As to the method:
In order to assess the affinity of ^111In-labeled compounds to the GIPR receptor of different species, a radioligand binding assay was established.
CHO-K1 cells (GenScript Biotech, #M00486) were stably transfected with the human GIPR. CHO-K1-hGIPR cells were cultured in Ham's F12 medium (Sigma-Aldrich, #N4888) including 10% fetal calf serum (FCS), 2 mM L-glutamine, 100 U/mL penicillin, 100 µg/mL streptomycin, 200 µg/mL Zeocin and 100 µg/mL HygromycinB. To evaluate the species cross-reactivity, CHO-VGT cells were transfected with the human, dog, rat and mouse GIPR (Inscreenex GmbH), which were cultured in DMEM/Ham's F12 Medium 1:1 (Biochrom, #F485) including 5% fetal calf serum (FCS), 2 mM L-glutamine, 100 U/mL penicillin and 100 μg/mL streptomycin. Cells were detached with Accutase (Biolegend, #BLD-423201) and counted using a particle counter (CASY Model TT; Schärfe Systems). Cell concentrations were adjusted to 3×10^5 mL^−1, and 1.000 μL of the suspension per well were dispensed into flat-clear-bottom 24 well plates.
Approximately 24 hours after re-seeding, the medium was aspirated and the cells were washed once with 700 μL assay medium (Ham's medium with 20 mM HEPES). […]
At the end of incubation time, cells were washed and subsequently harvested in 300 μL RIPA buffer containing PIC. Radioactivity of the cell lysate of each well was counted using a gamma counter (Perkin Elmer). […]

The target in series [3] is Recombinant soluble human NEP (Homo sapiens, UniProt P08473). The series is described as follows: Proteolytic stability assay against NEP. The conditions noted are these: NEP 100 ng/mL, compound 10 μM, 37° C., % intact compound remaining.

Experimental findings from patent US20250296971A1, “GASTRIC INHIBITORY PEPTIDE RECEPTOR LIGANDS” (priority 2021, published 2025) are described below.

*1 amine or outer side, *2 acyl side, *3 side chain or, on linkers, in order; H or OH if unused. Where a SMILES comes first, the peptide text is derived from it. Bridges are numbered along the chain shown (N, C = ends). [ ]: non-standard residue; d: D form. The star is where a group is joined. NH(1-deoxy-D-glucityl) = OC[C@@H](O)[C@@H](O)[C@H](O)[C@@H](O)CN*; DOTA = O=C(O)CN1CCN(CC(=O)O)CCN(CC(=O)*)CCN(CC(=O)O)CC1; Trp(5-Cl) = N[C@@H](Cc1c[nH]c2ccc(Cl)cc12)C(=O)O; Pyridine(2,6-diCH2) = c1cc(C[*:1])nc(C[*:2])c1; Pro(4R-NH2) = N[C@H]1CN[C@H](C(=O)O)C1; Glutaryl = O=C(CCCC(=O)[*:2])[*:1]; X1 = O=C(CN1CCC(N[*:1])CC1)[*:2]; Api = NC1(C(=O)O)CCNCC1

Sequence of Recombinant soluble human NEP (P08473 52-750 limits assumed): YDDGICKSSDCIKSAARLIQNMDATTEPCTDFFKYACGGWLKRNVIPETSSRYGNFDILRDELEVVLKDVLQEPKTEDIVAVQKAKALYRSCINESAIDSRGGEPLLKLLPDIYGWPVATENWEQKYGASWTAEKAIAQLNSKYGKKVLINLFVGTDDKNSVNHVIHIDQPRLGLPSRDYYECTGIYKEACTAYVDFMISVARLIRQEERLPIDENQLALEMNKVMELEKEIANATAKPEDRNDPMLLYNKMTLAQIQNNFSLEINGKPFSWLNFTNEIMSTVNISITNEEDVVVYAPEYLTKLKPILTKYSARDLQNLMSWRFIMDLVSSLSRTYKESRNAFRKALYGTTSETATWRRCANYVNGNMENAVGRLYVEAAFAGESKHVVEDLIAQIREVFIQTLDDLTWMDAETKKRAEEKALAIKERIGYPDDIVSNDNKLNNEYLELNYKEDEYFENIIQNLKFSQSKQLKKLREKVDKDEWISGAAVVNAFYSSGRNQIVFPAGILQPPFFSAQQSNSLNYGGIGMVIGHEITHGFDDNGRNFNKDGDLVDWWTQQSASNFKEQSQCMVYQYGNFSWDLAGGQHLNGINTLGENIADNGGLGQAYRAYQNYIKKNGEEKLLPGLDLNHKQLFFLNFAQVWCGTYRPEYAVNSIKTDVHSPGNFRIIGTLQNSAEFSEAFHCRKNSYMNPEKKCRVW

Regarding `CC[C@H](C)[C@@H]1NC(=O)[C@H](CC(C)C)NC(=O)C2(CCN(C(=O)CN3CCN(CC(=O)O)CCN(CC(=O)O)CCN(CC(=O)O)CC3)CC2)NC(=O)[C@@H](NC(=O)[C@@H](CC(C)C)NC(=O)[C@H](CCC(=O)O)NC(=O)[C@@H]2C[C@@H](N)CN2C(=O)[C@H](Cc2c[nH]c3ccc(Cl)cc23)NC(=O)[C@H](Cc2c[nH]c3ccccc23)NC(=O)[C@H](CC(=O)O)NC(=O)CCCC(=O)NC[C@H](O)[C@@H](O)[C@H](O)[C@H](O)CO)CSCc2cccc(n2)CSC[C@@H](C(=O)NC2CCN(CC(=O)N[C@H](CCC(=O)NC[C@H](O)[C@@H](O)[C@H](O)[C@H](O)CO)C(N)=O)CC2)NC1=O` [GIP-001, AGLU-Glutar-Asp-Trp-5Clw-Tap-Glu-leu-[Cys(2Lut)-Apc(DOTA)-Leu-Ile-Cys]-APAc-glu(AGLU)-NH2] ({NH(1-deoxy-D-glucityl)-Glutaryl}-DW[Trp(5-Cl)][Pro(4R-NH2)]E[dL]C[Api](DOTA)LIC[X1][dE](NH(1-deoxy-D-glucityl))-NH2; linker 7-11 via Pyridine(2,6-diCH2)), in series [1], the “Human plasma stability category” value was “A (>80% intact after 24 hours)”. The “Mouse plasma stability category” value in series [2] is “A (>80% intact after 24 hours)”. Also, at Human GIPR, the Kd was under 0.316 nM. Also, the NEP stability category entry in series [3] is “A (>80% intact after 24 hours)”.
